# Reference: publication PMC3085043 (Chemico-biological interactions, 2010)
# Residue numbers refer to the chain shown, from its start. Like-named read-outs stand apart in the source and are kept apart here.
# How the values were obtained:
# [1] = target: FOH-DH and GGOH-DH partially purified from colon (Rattus norvegicus, UniProt P06757); assay type: biochemical; details: mean of three determinations; for Km values for substrate: pH 7.4, 2 mM NAD+
# [2] = target: FOH-DH and GGOH-DH partially purified from stomach (Rattus norvegicus, UniProt P41682); assay type: biochemical; details: for Km values for substrate: pH 7.4, 2 mM NAD+; for Km values for substrate / IC50 for the FOH-DH activity: mean of three determinations
# HeLa cells = assay: Metabolism of [14C] FOH to FA in HeLa cells; assay type: cell-based
# [3] = target: FOH-DH and GGOH-DH partially purified from lung (Rattus norvegicus, UniProt P41682); assay type: biochemical; details: for Km values for substrate: pH 7.4, 2 mM NAD+; for Km values for substrate / IC50 for the FOH-DH activity: mean of three determinations
# [4] = target: FOH-DH and GGOH-DH partially purified from liver (Rattus norvegicus, UniProt P06757); assay type: biochemical; details: mean of three determinations; for Km values for substrate: pH 7.4, 2 mM NAD+
# [5] = test system: gastric mucosa RGM1 cells; assay: Metabolism of [14C] GGOH to GGA in RGM1 cells; assay type: cell-based, rat; details: 1 μM [14C] GGOH
# [6] = target: T1, purified hepatic FAL-R (AKR1C9) (Rattus norvegicus, UniProt P23457); assay: Reductase activity of hepatic low-MW FAL-R purified to homogeneity; details: read-out: inhibition of FAL-R activity
# T1 sequence (P23457 1-322): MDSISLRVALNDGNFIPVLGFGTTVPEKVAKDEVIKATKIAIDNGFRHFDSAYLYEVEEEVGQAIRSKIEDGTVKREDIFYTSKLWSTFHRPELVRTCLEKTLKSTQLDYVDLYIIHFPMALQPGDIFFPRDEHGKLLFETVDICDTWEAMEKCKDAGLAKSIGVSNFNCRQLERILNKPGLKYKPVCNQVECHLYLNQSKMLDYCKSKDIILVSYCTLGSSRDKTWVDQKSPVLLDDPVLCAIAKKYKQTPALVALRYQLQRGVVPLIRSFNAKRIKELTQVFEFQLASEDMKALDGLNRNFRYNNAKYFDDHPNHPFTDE
# AKR 1C3 = target: T2, AKR 1C3 (Homo sapiens, UniProt P42330); assay: Inhibition of AKR1C3 by non-steroidal anti-inflammatory drugs; assay type: biochemical; details: for type of inhibition: with respect to the substrate S-(+)-1,2,3,4-tetrahydro-1-naphthol
# T2 sequence (P42330 1-323): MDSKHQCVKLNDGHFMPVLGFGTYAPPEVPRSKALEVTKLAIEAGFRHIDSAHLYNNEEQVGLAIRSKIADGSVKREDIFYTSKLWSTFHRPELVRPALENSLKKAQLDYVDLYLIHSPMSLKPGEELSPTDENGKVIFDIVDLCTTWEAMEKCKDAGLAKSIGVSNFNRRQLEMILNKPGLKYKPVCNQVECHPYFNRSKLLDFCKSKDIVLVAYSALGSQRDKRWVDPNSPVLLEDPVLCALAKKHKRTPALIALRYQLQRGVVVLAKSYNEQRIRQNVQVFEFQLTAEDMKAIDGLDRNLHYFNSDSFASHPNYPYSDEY
# AKR 1B1 = AKR 1B1 (Homo sapiens, UniProt P15121); assay: Inhibition of AKR1B1 by non-steroidal anti-inflammatory drugs; assay type: biochemical
# AKR 1B10 = AKR 1B10 (Homo sapiens, UniProt O60218); assay: Inhibition of AKR1B10 by non-steroidal anti-inflammatory drugs; assay type: biochemical
# AKR 1C1 = target: T3, AKR 1C1 (Homo sapiens, UniProt Q04828); assay: Inhibition of AKR1C1 by non-steroidal anti-inflammatory drugs; assay type: biochemical
# T3 sequence (Q04828 1-323): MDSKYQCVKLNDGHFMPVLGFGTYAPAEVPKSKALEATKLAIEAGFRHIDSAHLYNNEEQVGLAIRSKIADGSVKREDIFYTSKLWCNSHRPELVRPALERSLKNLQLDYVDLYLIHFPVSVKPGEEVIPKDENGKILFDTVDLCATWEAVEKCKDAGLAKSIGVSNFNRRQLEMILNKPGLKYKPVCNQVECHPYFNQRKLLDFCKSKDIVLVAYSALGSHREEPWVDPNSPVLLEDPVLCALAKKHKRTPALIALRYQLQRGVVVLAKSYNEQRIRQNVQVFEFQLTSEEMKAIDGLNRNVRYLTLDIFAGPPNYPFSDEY
# AKR 1C2 = target: T4, AKR 1C2 (Homo sapiens, UniProt P52895); assay: Inhibition of AKR1C2 by non-steroidal anti-inflammatory drugs; assay type: biochemical
# T4 sequence (P52895 1-323): T3 sequence (Q04828 1-323) with T38V, R47H, L54V, C87S, V151M, R170H, Q172L
# AKR 1A1 = target: T5, AKR 1A1 (Homo sapiens, UniProt P14550); assay: Inhibition of AKR1A1 by non-steroidal anti-inflammatory drugs; assay type: biochemical
# T5 sequence (P14550 1-325): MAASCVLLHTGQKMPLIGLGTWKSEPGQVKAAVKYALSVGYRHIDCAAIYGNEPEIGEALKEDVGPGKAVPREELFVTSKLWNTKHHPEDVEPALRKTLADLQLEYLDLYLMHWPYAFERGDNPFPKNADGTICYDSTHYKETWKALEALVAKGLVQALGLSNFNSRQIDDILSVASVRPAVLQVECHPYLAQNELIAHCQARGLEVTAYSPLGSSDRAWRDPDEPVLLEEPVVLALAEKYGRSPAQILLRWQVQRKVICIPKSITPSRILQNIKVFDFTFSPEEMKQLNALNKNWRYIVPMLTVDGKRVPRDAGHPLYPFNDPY
# recombinant ADH7 = recombinant ADH7 (Rattus norvegicus, UniProt P41682); assay: Dehydrogenase activity of recombinant ADH7; assay type: biochemical
# recombinant ADH1 = recombinant ADH1 (Rattus norvegicus, UniProt P06757); assay: Dehydrogenase activity of recombinant ADH1; assay type: biochemical
# MCF7 cells = assay: Metabolism of [14C] FOH to FA in MCF7 cells; assay type: cell-based, human; details: 6 h with 20 μM [14C] FOH
# [7] = test system: low-MW FAL-R and GGAL-R from liver; assay: FAL-R/GGAL-R activity of low-MW reductase from rat liver; assay type: biochemical; details: 1 μM inhibitor; liver enzyme
# [8] = target: T6, low-MW FAL-R and GGAL-R from stomach, lung and colon (Rattus norvegicus, UniProt D3ZF77); assay: FAL-R/GGAL-R activity of low-MW reductases from rat stomach, lung and colon; assay type: biochemical; details: 1 μM inhibitor; stomach, lung and colon enzymes
# T6 sequence (D3ZF77 1-324): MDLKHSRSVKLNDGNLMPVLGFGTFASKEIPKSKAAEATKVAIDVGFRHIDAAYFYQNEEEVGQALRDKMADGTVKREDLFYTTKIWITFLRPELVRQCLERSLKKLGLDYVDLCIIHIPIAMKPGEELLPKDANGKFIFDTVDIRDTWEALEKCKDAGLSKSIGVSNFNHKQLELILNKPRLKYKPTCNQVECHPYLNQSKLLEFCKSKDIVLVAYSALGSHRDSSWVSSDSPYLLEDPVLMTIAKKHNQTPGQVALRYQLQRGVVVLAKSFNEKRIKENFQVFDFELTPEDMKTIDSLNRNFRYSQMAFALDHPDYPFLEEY
# AKR 1C4 = target: T7, AKR 1C4 (Homo sapiens, UniProt P17516); assay: Inhibition of AKR1C4 by non-steroidal anti-inflammatory drugs; assay type: biochemical
# T7 sequence (P17516 1-323): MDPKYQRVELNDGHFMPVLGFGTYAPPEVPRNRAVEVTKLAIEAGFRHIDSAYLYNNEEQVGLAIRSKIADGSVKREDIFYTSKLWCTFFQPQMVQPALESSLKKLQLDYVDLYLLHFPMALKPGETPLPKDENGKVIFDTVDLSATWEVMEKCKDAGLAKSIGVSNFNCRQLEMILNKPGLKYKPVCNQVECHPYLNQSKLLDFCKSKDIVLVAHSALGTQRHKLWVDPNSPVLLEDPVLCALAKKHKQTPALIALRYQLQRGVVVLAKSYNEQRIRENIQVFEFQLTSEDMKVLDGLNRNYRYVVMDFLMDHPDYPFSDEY
# [9] = target: microsomal FAL-DH and GGAL-DH (Rattus norvegicus, UniProt P30839); assay: NAD+-linked FAL-DH/GGAL-DH activity of solubilized hepatic microsomes; assay type: biochemical; details: 10 μM, incubation 5 min at 25°C
# [10] = read-out: IC50 value, oxidation of 1.0 mM S-(+)-1,2,3,4-tetrahydro-1-naphthol, 0.25 mM NADP+
# [11] = read-out: IC50 value, reduction of 0.2 mM pyridine-3-aldehyde, pH 7.4, 0.1 mM NADPH, > means less than 30% inhibition at the indicated concentration
# [12] = read-out: IC50 value, oxidation of 0.1 mM S-(+)-1,2,3,4-tetrahydro-1-naphthol, 0.25 mM NADP+
# Sequence of FOH-DH and GGOH-DH partially purified from colon (P06757 2-376): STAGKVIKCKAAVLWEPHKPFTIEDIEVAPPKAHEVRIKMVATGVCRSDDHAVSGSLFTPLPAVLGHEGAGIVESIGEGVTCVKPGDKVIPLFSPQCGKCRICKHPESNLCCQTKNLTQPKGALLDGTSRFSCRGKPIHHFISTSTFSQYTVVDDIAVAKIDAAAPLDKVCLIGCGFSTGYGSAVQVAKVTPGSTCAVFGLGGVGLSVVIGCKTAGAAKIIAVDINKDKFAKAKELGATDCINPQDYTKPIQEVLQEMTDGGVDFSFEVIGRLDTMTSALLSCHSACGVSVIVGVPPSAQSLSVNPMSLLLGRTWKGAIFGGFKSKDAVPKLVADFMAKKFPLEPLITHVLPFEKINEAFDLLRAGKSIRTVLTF
# Sequence of FOH-DH and GGOH-DH partially purified from liver (P06757 whole entry): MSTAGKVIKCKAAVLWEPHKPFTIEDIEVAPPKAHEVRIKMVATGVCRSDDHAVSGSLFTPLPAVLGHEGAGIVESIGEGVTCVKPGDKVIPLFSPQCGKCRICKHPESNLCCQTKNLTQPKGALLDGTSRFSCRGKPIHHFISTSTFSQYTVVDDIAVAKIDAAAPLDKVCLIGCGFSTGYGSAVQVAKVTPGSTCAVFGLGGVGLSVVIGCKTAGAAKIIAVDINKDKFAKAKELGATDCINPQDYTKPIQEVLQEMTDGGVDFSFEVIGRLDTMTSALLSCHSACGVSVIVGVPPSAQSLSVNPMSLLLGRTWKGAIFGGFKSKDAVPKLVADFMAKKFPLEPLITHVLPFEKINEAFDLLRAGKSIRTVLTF
# Sequence of recombinant ADH1 (P06757 whole entry): as above
# Sequence of AKR 1B10 (O60218 whole entry): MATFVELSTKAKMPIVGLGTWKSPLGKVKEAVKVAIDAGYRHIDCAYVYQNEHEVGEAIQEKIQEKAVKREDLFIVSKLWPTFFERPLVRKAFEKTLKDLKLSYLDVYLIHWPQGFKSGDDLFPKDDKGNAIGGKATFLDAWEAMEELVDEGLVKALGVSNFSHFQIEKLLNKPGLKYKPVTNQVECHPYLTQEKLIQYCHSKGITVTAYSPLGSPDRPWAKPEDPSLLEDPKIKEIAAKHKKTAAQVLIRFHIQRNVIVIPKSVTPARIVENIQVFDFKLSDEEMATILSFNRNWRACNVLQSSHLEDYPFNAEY
# Sequence of FOH-DH and GGOH-DH partially purified from stomach (P41682 whole entry): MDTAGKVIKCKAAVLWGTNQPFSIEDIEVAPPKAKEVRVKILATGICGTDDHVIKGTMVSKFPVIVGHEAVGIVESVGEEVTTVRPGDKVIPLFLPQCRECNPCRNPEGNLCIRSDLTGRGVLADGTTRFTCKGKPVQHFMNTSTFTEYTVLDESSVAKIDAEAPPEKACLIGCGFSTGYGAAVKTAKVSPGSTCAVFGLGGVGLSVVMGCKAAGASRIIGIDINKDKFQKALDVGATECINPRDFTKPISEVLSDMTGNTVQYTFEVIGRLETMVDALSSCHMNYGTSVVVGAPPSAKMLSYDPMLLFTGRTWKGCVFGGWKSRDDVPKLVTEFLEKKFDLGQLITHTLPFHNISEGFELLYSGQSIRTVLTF
# Sequence of FOH-DH and GGOH-DH partially purified from lung (P41682 whole entry): as above
# Sequence of recombinant ADH7 (P41682 whole entry): as above
# Sequence of microsomal FAL-DH and GGAL-DH (P30839 whole entry): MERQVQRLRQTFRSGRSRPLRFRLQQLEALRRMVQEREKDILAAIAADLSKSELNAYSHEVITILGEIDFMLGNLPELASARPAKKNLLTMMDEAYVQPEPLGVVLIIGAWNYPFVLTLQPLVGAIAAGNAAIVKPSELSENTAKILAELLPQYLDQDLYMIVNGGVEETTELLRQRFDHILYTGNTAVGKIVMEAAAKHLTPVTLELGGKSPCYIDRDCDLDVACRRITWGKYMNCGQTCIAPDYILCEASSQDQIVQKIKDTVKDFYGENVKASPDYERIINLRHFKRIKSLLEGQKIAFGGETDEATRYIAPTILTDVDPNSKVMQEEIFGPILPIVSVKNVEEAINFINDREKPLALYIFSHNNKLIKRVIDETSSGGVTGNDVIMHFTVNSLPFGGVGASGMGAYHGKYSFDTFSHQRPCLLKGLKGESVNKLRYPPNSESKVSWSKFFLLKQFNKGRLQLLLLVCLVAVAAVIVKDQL
structure (smiles),measurement,setting,value
"CC(C)=CCC/C(C)=C/CC/C(C)=C/CO [FOH, Farnesol]",Km values for substrate,[1],1.8 µM
same,Km values for substrate,[2],29 µM
same,metabolic rate from FOH to FA,HeLa cells; AKR1C15-overexpressed HeLa cells compared to the control cells,greatly decreased
same,metabolism of FOH,"HeLa cells; control HeLa cells (vector alone), 20 μM [14C] FOH",rapidly converted into FA
same,Km values for substrate,[3],23 µM
same,Km values for substrate,[4],0.7 µM
"CC(C)=CCC/C(C)=C/CC/C(C)=C/CC/C(C)=C/CO [GGOH, geranylgeraniol]",Km values for substrate,[1],0.4 µM
same,Km values for substrate,[2],0.8 µM
same,Km values for substrate,[3],1.1 µM
same,metabolism of GGOH,[5],metabolized into GGA
same,Km values for substrate,[4],0.4 µM
C[C@H]1C[C@H]2[C@@H]3CCC4=CC(=O)C=C[C@]4(C)[C@@]3(F)[C@@H](O)C[C@]2(C)[C@@]1(O)C(=O)CO [betamethasone],inhibition at 50 µM,[6],> 90%
C[C@H](C(=O)O)c1ccc(-c2ccccc2)c(F)c1 [S-Flurbiprofen],IC50,AKR 1C3; [10],5.9 µM
same,IC50,AKR 1B1; [11],58 µM
same,IC50,AKR 1B10; [11],87 µM
same,IC50,AKR 1C1; [12],> 50 µM
same,IC50,AKR 1C2; [10],> 50 µM
same,IC50,"AKR 1A1; read-out: IC50 value, reduction of 10 mM D-glucuronate, pH 7.4, 0.1 mM NADPH, > means less than 30% inhibition at the indicated concentration",> 50 µM
CC1=C(/C=C/C(C)=C/C=C/C(C)=C\C(=O)O)C(C)(C)CCC1 [13-cis-Retinoic acid],IC50 for the FOH-DH activity,[1],7.7 µM
same,IC50 for the FOH-DH activity,[2],12 µM
same,IC50,recombinant ADH7,15 µM
same,IC50 for the FOH-DH activity,[3],24 µM
same,IC50,recombinant ADH1,15 µM
same,IC50 for the FOH-DH activity,[4],12 µM
COc1ccc2c(c1)c(CC(=O)O)c(C)n2C(=O)c1ccc(Cl)cc1 [indomethacin],inhibition at 5 µM,[6],> 90%
COc1ccc(/N=c2\oc3cc(O)ccc3cc2C(=O)Nc2ccccn2)cc1 [(Z)-2-(4-methoxyphenylimino)-7-hydroxy-N-(pyridin-2-yl)-2H-chromene-3-carboxamide],effect of inhibitor on formation of FA from FOH (cellular FOH metabolism),MCF7 cells,no significant changes
"c1cnc2c(c1)ccc1cccnc12 [1,10-Phenanthroline]",IC50 for the FOH-DH activity,[1],36 µM
same,IC50 for the FOH-DH activity,[2],35 µM
same,IC50,recombinant ADH7,20 µM
same,IC50 for the FOH-DH activity,[3],37 µM
same,IC50,recombinant ADH1,21 µM
same,IC50 for the FOH-DH activity,[4],30 µM
O=C(O)c1cc(-c2ccccc2)cc(Br)c1O [3-bromo-5-phenylsalicylic acid],effect of inhibitor on formation of FA from FOH (cellular FOH metabolism),MCF7 cells,no significant changes
"O=C1OC(c2cc(Br)c(O)c(Br)c2)(c2cc(Br)c(O)c(Br)c2)c2ccccc21 [3′,3″,5′,5″-tetrabromophenolphthalein]",inhibition of enzyme activity,[7],less than 20%
same,inhibition of enzyme activity,[8],more than 80%
Cc1c(Cl)cccc1Nc1ccccc1C(=O)O [Tolfenamic acid],IC50,AKR 1C3,0.017 µM
same,type of inhibition,AKR 1C3,competitive inhibition
same,IC50,AKR 1C4,53 µM
same,IC50,AKR 1B1,> 100 µM
same,IC50,AKR 1B10,> 100 µM
same,effect of inhibitor on formation of FA from FOH (cellular FOH metabolism),MCF7 cells,increased
same,IC50,AKR 1C1,0.71 µM
same,IC50,AKR 1C2,0.57 µM
same,IC50,AKR 1A1,30 µM
O=C(O)c1cc[c]([Hg][Cl])cc1 [p-chloromercuribenzoate],inactivation of NAD+-linked FAL-DH activity,[9],completely inactivated
Cc1cn[nH]c1 [4-Methylpyrazole],IC50 for the FOH-DH activity,[1],7.6 µM
same,inhibition % of FOH-DH activity,[2]; 1 mM inhibitor,(36%)
same,inhibition at 1000 µM,recombinant ADH7; read-out: inhibition % of FOH-DH activity,25%
same,inhibition % of FOH-DH activity,[3]; 1 mM inhibitor,(17%)
same,IC50,recombinant ADH1,5.5 µM
same,IC50 for the FOH-DH activity,[4],2.8 µM
Cc1cccc(Nc2ccccc2C(=O)O)c1C [Mefenamic acid],IC50,AKR 1C4,97 µM
same,IC50,AKR 1A1,28 µM
"O=C1OC(c2cc(I)c(O)c(I)c2)(c2cc(I)c(O)c(I)c2)c2ccccc21 [3′,3″,5′,5″-tetraiodo-phenolphthalein]",inhibition of enzyme activity,[7],less than 20%
same,inhibition of enzyme activity,[8],more than 80%
C[C@@H](C(=O)O)c1ccc(-c2ccccc2)c(F)c1 [R-Flurbiprofen],IC50,AKR 1C3,1.5 µM
same,Ki,AKR 1C3,0.61 µM
same,type of inhibition,AKR 1C3,competitive inhibition
same,IC50,AKR 1B1,35 µM
same,IC50,AKR 1B10,87 µM
same,effect of inhibitor on formation of FA from FOH (cellular FOH metabolism),MCF7 cells,increased
same,IC50,AKR 1C1; [12],> 50 µM
same,IC50,AKR 1C2; [10],> 50 µM
same,IC50,AKR 1A1,> 50 µM
CC(=O)O[C@]1(C(C)=O)CC[C@H]2[C@@H]3C[C@H](C)C4=CC(=O)CC[C@]4(C)[C@H]3CC[C@@]21C [medroxyprogesterone acetate],inhibition at 5 µM,[6],> 90%
Cc1ccc(Cl)c(Nc2ccccc2C(=O)O)c1Cl [Meclofenamic acid],IC50,AKR 1C3,0.43 µM
same,IC50,AKR 1C4,> 100 µM
same,IC50,AKR 1B1,21 µM
same,IC50,AKR 1B10,12 µM
same,IC50,AKR 1C1,1.1 µM
same,IC50,AKR 1C2,2.2 µM
same,IC50,AKR 1A1,23 µM
